Holding throughout (assay type): in vivo
For assay [1], the system named is Fmr1 KO mice. The experiment in a line: Audiogenic seizures (cohort 1). The following applies: 200 mg/kg i.p. acute, 60 min pre-treatment, vs vehicle-treated Fmr1 KO. As to the method:
48 male mice were tested at 3 weeks of age. CBD (SYN OR BOT 0.08%) were tested at 2 doses each (20 and 200 mg/kg) following acute intraperitoneal administration at a dose volume of 10 ml/kg. Compounds were administered 60 minutes prior to test.
Following pre-treatment with vehicle or test compound, mice were individually placed in a Plexiglas chamber and allowed to explore for 15 s following which they were exposed to a 125 dB tone for 2 minutes, followed by 1 minute of no sound, and then a further 2 minute tone. The mice were scored based on their response, latency, and seizure intensity:
The following endpoints were reported: • 1. Latency to seize: Time to first seizure (maximum 300 s). […] Latency to respiratory arrest: Time to death (maximum 300 s). Animals that survived received a score of 300 s. • 3. Seizure Score: Maximum score animals obtained during the 5 minute test.

In assay [2] the test system is Fmr1 KO mice. Description: Open field. The procedure: (§1) 60 male mice were tested at 8 weeks of age. CBD (SYN OR BOT 0.08%) were evaluated at 2 doses each (20 and 200 mg/kg) following once daily intraperitoneal administration, at a dose volume of 10 ml/kg. Compounds were administered for 2 weeks prior to the start of testing and throughout testing.
(§2) On the test day, compounds were administered 60 minutes prior to test.
The open field chambers are Plexiglas square chambers (27.3×27.3×20.3 cm; Med Associates Inc., St Albans, Vt.) surrounded by infrared photo beams (16×16×16) to measure horizontal and vertical activity. On the day of testing, mice were brought to the activity experimental room for acclimation to the conditions at least 1 h prior to testing. After a 60 minute pretreatment time, mice were placed in the center of an open field activity box for a 60 minute test period. After the completion of the test, mice were placed back in their home cage.
The time courses for locomotor and rearing activities were presented in 5-minute bins during the 60 minute test. Total distance traveled, and numbers of rears were also summed during the 60 minute test.

Assay [3] relates to Fmr1 KO mice. The experiment in a line: Behavioral testing (cohort 2), overall conclusion. The following applies: 20 and 200 mg/kg i.p. once daily. As to the method:
Test compounds were evaluated at 2 doses each (20 and 200 mg/kg). Test compounds were injected i.p. (intraperitoneal) acutely at 60 min pre-treatment for audiogenic seizures (cohort 1). For all other behavioural testing, a separate cohort of animals were dosed i.p. once per day for 2 weeks prior to the start of testing and then for 2 weeks during testing, with 60 min pre-treatment on test days (cohort 2).
as §1, §2

In assay [4] the test system is Fmr1 KO mice. The experiment in a line: Social interaction (three-chamber paradigm). Particulars: higher dose (200 mg/kg i.p.). As to the method: as §1, §2
The three-chamber paradigm is used to assess social interest. The Plexiglas testing apparatus consists of two side chambers and a center chamber, each 42.5 cm×17.5 cm×23 cm. […]
Group-housed naïve partner mice (age-matched C3H mice) were habituated to the chamber for 30 minutes the day before testing. […] The doorways were then lifted and the subject was allowed to feely explore all three chambers for 10 min while movement was video-recorded and scored manually for sniffing of the mouse or object. […]
Discrimination percentage for time spent in chambers was calculated as (total time spent in mouse chamber-total time spent in object)/(total time spent in mouse+total time in object chamber)*100 and presented in FIG. 4.
Discrimination percentage for interaction frequency was calculated as (number of interactions with mouse−number of interactions with object)/(total number of interactions with the mouse+the object)*100 and is presented in FIG. 5. […]

For the compound `C=C(C)[C@@H]1CCC(C)=C[C@H]1c1c(O)cc(CCCCC)cc1O` [CBD (SYN), cannabidiol], the median seizure score entry in the assay on Fmr1 KO mice [1] is reported as “This effect was not observed”. For the same compound, the “total distance traveled during the 60 minute test period” value with Fmr1 KO mice [2] (20 mg/kg i.p. once daily, 60 min pre-treatment) is given as “traveled significantly more than mice treated with CBD (BOT 0.08%) 20 mg/kg”. Besides, in the assay on Fmr1 KO mice [2] (200 mg/kg i.p. once daily, post-hoc multiple comparisons), the “rearing frequency in 5 min bins: periods in which Fmr1 KO-vehicle treated mice reared significantly more than the treated group” value is “during minutes 35-40 and during minutes 55-60”. Further, the “social or memory related behaviors” value in the assay with Fmr1 KO mice [3] is listed as “Neither the botanically derived purified CBD or the synthetic CBD were found to have any significant improvement”. Besides, the “discrimination percentage for time spent in chambers” value in the assay on Fmr1 KO mice [4] (Dunn's test vs vehicle-treated Fmr1 KO) is listed as “enhanced discrimination compared to vehicle-treated Fmr1 KO mice”. Further, the “total time spent in the partner mouse chamber” value with Fmr1 KO mice [4] (Sidak's test vs Fmr1 KO vehicle) is given as “spent significantly more time in the partner mouse chamber”.

(Values after patent US20220378714A1, “USE OF CANNABIDIOL PREPARATIONS IN THE TREATMENT OF FRAGILE X SYNDROME” (GW Research Limited, priority 2019, published 2022).)
